According to the NIST ThermoML archive (doi:10.1016/j.fluid.2005.12.029):

Assay: excess molar enthalpy (molar enthalpy of mixing); xn = mol fraction of the nth substance listed
Conditions: 308.15 K, 12400 kPa, Fluid (supercritical or subcritical phases)

CCCCCC [hexane] + CO
Conditions | excess molar enthalpy [kcal/mol]
x2 = 0.032 | 0.0609
x2 = 0.062 | 0.081
x2 = 0.118 | 0.0966
x2 = 0.145 | 0.113
x2 = 0.17 | 0.117
x2 = 0.218 | 0.125
x2 = 0.249 | 0.129
x2 = 0.803 | 0.113
x2 = 0.828 | 0.107
x2 = 0.851 | 0.0978
x2 = 0.872 | 0.0877
x2 = 0.903 | 0.0727
x2 = 0.928 | 0.0593
x2 = 0.959 | 0.0347

CCCCCCCCO [octan-1-ol] + CCCCCC
Conditions | excess molar enthalpy [kcal/mol]
x1 = 0.033 | 0.0741
x1 = 0.05 | 0.086
x1 = 0.101 | 0.102
x1 = 0.153 | 0.111
x1 = 0.206 | 0.117
x1 = 0.3 | 0.122
x1 = 0.397 | 0.12
x1 = 0.447 | 0.115
x1 = 0.503 | 0.109
x1 = 0.602 | 0.0949
x1 = 0.653 | 0.0822
x1 = 0.696 | 0.0715
x1 = 0.749 | 0.059
x1 = 0.789 | 0.0483
x1 = 0.858 | 0.0313
x1 = 0.904 | 0.0163
x1 = 0.928 | 0.0148
x1 = 0.952 | 0.00526
